Measured values taken from patent US9790169B2, “IDO inhibitors” (BRISTOL-MYERS SQUIBB COMPANY, priority 2015, dated 2017).

target: human IDO1 (Homo sapiens, UniProt P14902); experiment: Assessment of human IDO-1 inhibitory activity in Hela cells (Interferon-gamma stimulated HeLa cells, Ehrlich reagent, absorbance 490 nm); assay type: cell-based; parameters: endogenous in cells; host or cells: HeLa cells stimulated with interferon-gamma; conditions: Hela Human IDO-1 cellular assay
Summary of the method: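 HeLa cells pre-incubated with compound 1 h at 37 °C, then stimulated with human IFN-γ (10 ng/ml final) or murine IFN-γ (5 ng/ml final) for 18 h. Kynurenine read with Ehrlich reagent at 490 nm after TCA (3%) and 50 °C treatment; IC50 normalized to unstimulated (100%) and IFN-γ-only (0%) wells.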

Sequence of human IDO1 (P14902 whole entry): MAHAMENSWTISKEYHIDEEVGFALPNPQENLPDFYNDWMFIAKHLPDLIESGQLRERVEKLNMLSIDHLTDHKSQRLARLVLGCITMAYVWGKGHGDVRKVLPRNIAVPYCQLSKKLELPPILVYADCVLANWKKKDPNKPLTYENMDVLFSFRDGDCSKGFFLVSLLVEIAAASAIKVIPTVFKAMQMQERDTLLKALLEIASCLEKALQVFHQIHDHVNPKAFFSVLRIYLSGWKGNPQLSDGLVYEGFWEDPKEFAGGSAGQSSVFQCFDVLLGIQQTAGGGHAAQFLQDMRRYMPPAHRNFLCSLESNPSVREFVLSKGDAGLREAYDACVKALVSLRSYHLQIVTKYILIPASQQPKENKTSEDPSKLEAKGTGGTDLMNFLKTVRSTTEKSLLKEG

First: CC[C@@H](CC(=O)O)c1ccc(N(CC)C2CCOCC2)c(Nc2cnc(N(C)C)nc2)c1 (single isomer, unassigned) [Example 459]
Second: CC[C@H](CC(=O)O)c1ccc(N(CC)C2CCOCC2)c(Nc2ccc(N(C)C)nc2)c1 (single isomer, unassigned) [Example 506]
The IC50 of the first is lower: under 50 nM for the first, over 50 nM for the second. The first is the more potent here.

CCC(CC(=O)O)c1ccc(N(CC)C2CCCOC2)c(Nc2cnc(OC)nc2)c1 (single isomer, unassigned) [Example 65, 3-(4-(ethyl(tetrahydro-2H-pyran-3-yl)amino)-3-((2-methoxypyrimidin-5-yl)amino)phenyl)pentanoic acid] and CCC(CC(=O)O)c1ccc(N(CCOC)C2CCOCC2)c(Nc2cnc(OC)nc2)c1 (single isomer, unassigned) [Example 1259, 3-(4-((2-methoxyethyl)(tetrahydro-2H-pyran-4-yl)amino)-3-((2-methoxypyrimidin-5-yl)amino)phenyl)pentanoic acid] cannot be ordered by IC50: under 5 nM for the first, under 50 nM for the second.

CCOc1ncc(Nc2cc([C@H](CC)Cc3ncno3)ccc2N(CC)C2CCOCC2)cn1 [Example 1337, (R)-4-(1-(1,2,4-Oxadiazol-5-yl)butan-2-yl)-N2-(2-ethoxypyrimidin-5-yl)-N1-ethyl-N1-(tetrahydro-2H-pyran-4-yl)benzene-1,2-diamine] and CCOc1ncc(Nc2cc(C(C)CC(=O)O)ccc2N(CC)C2CCOCC2)cn1 (single isomer, unassigned) [Example 632, 3-(3-((2-ethoxypyrimidin-5-yl)amino)-4-(ethyl (tetrahydro-2H-pyran-4-yl)amino)phenyl)butanoic acid] cannot be ordered by IC50: under 50 nM for the first, under 50 nM for the second.

Compared with CCC1COCCN1c1ccc([C@H](COC)CC(=O)O)cc1Nc1ccc(Cl)cc1 (single isomer, unassigned) [Example 1292], CCC1COCCN1c1ccc([C@@H](COC)CC(=O)O)cc1Nc1ccc(Cl)cc1 (single isomer, unassigned) [Example 1286] is higher in IC50: under 50 nM for the first, over 50 nM for the second.

CCCN(c1ccc([C@H](COC)CC(=O)O)cc1Nc1cnc(OCC2CC2)nc1)C1CCOCC1 (single isomer, unassigned) [Example 573] and CCCN(c1ccc([C@@H](COC)CC(=O)O)cc1Nc1cnc(OCC)nc1)C1CCOCC1 (single isomer, unassigned) [Example 559] cannot be ordered by IC50: under 50 nM for the first, under 50 nM for the second.

CCC(CC(=O)O)c1cc(F)c(N(CC)C2CCOCC2)c(Nc2ccc(OC)nc2)c1 (single isomer, unassigned) [Example 142, 3-(4-(ethyl(tetrahydro-2H-pyran-4-yl)amino)-3-fluoro-5-((6-methoxypyridin-3-yl)amino)phenyl) pentanoic acid] and CCCN(c1ccc([C@H](CC)CC(=O)O)cc1Nc1ccc(OC)nc1)C1CCOCC1 (single isomer, unassigned) [Example 553] cannot be ordered by IC50: under 5 nM for the first, under 5 nM for the second.

COCC(CC(=O)O)c1ccc(N(C)C2CCOCC2)c(Nc2ccc(C#N)cn2)c1 (single isomer, unassigned) [Example 874, 3-(3-((5-cyanopyridin-2-yl)amino)-4-(methyl (tetrahydro-2H-pyran-4-yl)amino)phenyl)-4-methoxybutanoic acid] and COCC(CC(=O)O)c1ccc(N(C)C2CCOCC2)c(Nc2ccc(C#N)cc2)c1 (single isomer, unassigned) [Example 873, 3-(3-((4-Cyanophenyl)amino)-4-(methyl(tetrahydro-2H-pyran-4-yl)amino)phenyl)-4-methoxybutanoic acid] cannot be ordered by IC50: under 5 nM for the first, under 50 nM for the second.

Compared with CCN(c1ccc(C(CC)(CC)CC(=O)O)cc1Nc1cnc(OC)nc1)C1CCOCC1 [Example 28, 3-ethyl-3-(4-(ethyl(tetrahydro-2H-pyran-4-yl)amino)-3-((2-methoxypyrimidin-5-yl)amino)phenyl)pentanoic acid], CCN(c1ccc(C(C)CC(=O)O)cc1Nc1cnc(OC(C)C)nc1)C1CCOCC1 (single isomer, unassigned) [Example 622, 3-(4-(ethyl(tetrahydro-2H-pyran-4-yl)amino)-3-((2-isopropoxypyrimidin-5-yl)amino)phenyl)butanoic acid] is higher in IC50: under 50 nM for the first, over 50 nM for the second.

CCC(CC(=O)O)c1cc(Nc2ccc(C#N)cn2)c(N(CC)C2CCOCC2)cc1F (single isomer, unassigned) [Example 857, 3-(5-((5-cyanopyridin-2-yl)amino)-4-(ethyl(tetra-hydro-2H-pyran-4-yl)amino)-2-fluorophenyl) pentanoic acid] and CCN(c1ccc([C@@H](COC)CC(=O)O)cc1Nc1ncc(F)cc1F)C1CCOCC1 (single isomer, unassigned) [Example 358] cannot be ordered by IC50: under 50 nM for the first, under 50 nM for the second.

First: CCC(CC(=O)O)c1ccc(N2CCN(C(=O)OC)CC2)c(Nc2ccc(C#N)cc2)c1 (single isomer, unassigned) [Example 668 Enantiomer 1, 3-(3-((4-Cyanophenyl)amino)-4-(4-(methoxycarbonyl)piperazin-1-yl)phenyl)pentanoic acid]
Second: CCC(CC(=O)O)c1ccc(N2CC(O)(c3ccc(F)cc3)C2)c(Nc2ccc(C#N)cc2)c1 (single isomer, unassigned) [Example 1254, 3-(3-((4-cyanophenyl)amino)-4-(3-(4-fluorophenyl)-3-hydroxyazetidin-1-yl)phenyl)pentanoic acid]
The IC50 of the first is higher: over 50 nM for the first, under 50 nM for the second. The second is the more potent here.

CCC(CC(=O)O)c1ccc(N(CC)C2CCCOC2)c(Nc2cnc(OC)nc2)c1 (single isomer, unassigned) [Example 62, 3-(4-(ethyl(tetrahydro-2H-pyran-3-yl)amino)-3-((2-methoxypyrimidin-5-yl)amino)phenyl)pentanoic acid] and CCC(CC(=O)O)c1ccc(N(CC)C2CCCOC2)c(Nc2ccc(C#N)cc2)c1 (single isomer, unassigned) [Example 61, 3-(3-((4-cyanophenyl)amino)-4-(ethyl(tetrahydro-2H-pyran-3-yl)amino)phenyl)pentanoic acid] cannot be ordered by IC50: under 5 nM for the first, under 5 nM for the second.

CCN(c1ccc(C(C)(C)CC(=O)O)cc1Nc1ccc2c(c1)OC(F)(F)O2)C1CCS(=O)(=O)CC1 [Example 179, 3-(3-((2,2-difluorobenzo[d][1,3]dioxol-5-yl)amino)-4-((1,1-dioxidotetrahydro-2H-thiopyran-4-yl)(ethyl)amino)phenyl)-3-methylbutanoic acid] and CCCN(c1ccc(C(COC)CC(=O)O)cc1Nc1ccc(Cl)cc1)C1CCS(=O)(=O)CC1 (single isomer, unassigned) [Example 183, 3-(3-((4-chlorophenyl)amino)-4-((1,1-dioxidotetrahydro-2H-thiopyran-4-yl)(propyl)amino)phenyl)-4-methoxybutanoic acid] cannot be ordered by IC50: under 5 nM for the first, under 50 nM for the second.

COCCN(c1ccc(C(COC)CC(=O)O)cc1Nc1ccc(C#N)cc1)C1CCOCC1 (single isomer, unassigned) [Example 257, 3-(3-((4-cyanophenyl)amino)-4-((2-methoxyethyl)(tetrahydro-2H-pyran-4-yl)amino)phenyl)-4-methoxybutanoic acid] and CC[C@H](CC(=O)O)c1ccc(N(CC)C2CCOCC2)c(Nc2ccc(S(=O)(=O)CC)cc2)c1 (single isomer, unassigned) [Example 525] cannot be ordered by IC50: under 50 nM for the first, under 50 nM for the second.

First: COCC(CC(=O)O)c1ccc(N2CCOC[C@H]2C(C)C)c(NC(=O)Nc2ccc(C#N)cc2)c1 (single isomer, unassigned) [Example 911]
Second: CCC1COCCN1c1ccc([C@H](COC)CC(=O)O)cc1Nc1ccc(C#N)c(F)c1 (single isomer, unassigned) [Example 1304]
The IC50 of the first is higher: over 50 nM for the first, under 50 nM for the second.

First: CCC(CC(=O)O)c1ccc(N2CC(O)(c3ccc(F)cc3)C2)c(Nc2ccc(Cl)cc2)c1 (single isomer, unassigned) [Example 1253 E1, 3-(3-((4-Chlorophenyl)amino)-4-(3-(4-fluorophenyl)-3-hydroxyazetidin-1-yl)phenyl)pentanoic acid]
Second: CCOc1ncc(Nc2cc(C(CC)CC(=O)O)ccc2N2CC(O)(c3ccc(F)cc3)C2)cn1 (single isomer, unassigned) [Example 1256, 3-(3-((2-ethoxypyrimidin-5-yl)amino)-4-(3-(4-fluorophenyl)-3-hydroxyazetidin-1-yl)phenyl)pentanoic acid]
The IC50 of the first is lower: under 50 nM for the first, over 50 nM for the second.

Going from COCCN(c1ccc(C(C)(C)CC(=O)O)cc1NC(=O)Nc1ccc(C)cc1)C1CCOCC1 [Example 18, 3-(4-((2-Methoxyethyl)(tetrahydro-2H-pyran-4-yl)amino)-3-(3-(p-tolyl)ureido)phenyl)-3-methylbutanoic acid] to CCN(c1ccc(C(CC(=O)O)C2CC2)cc1Nc1ccc(Cl)cc1)C1CCOCC1 (single isomer, unassigned) [Example 33 Enantiomer 1, 3-(3-((4-Chlorophenyl)amino)-4-(ethyl(tetrahydro-2H-pyran-4-yl)amino)phenyl)-3-cyclopropylpropanoic acid], the IC50 falls from over 50 nM to under 5 nM. The second is the more potent here.

CCOc1ncc(Nc2cc(C(COC)CC(=O)O)ccc2N2CCC(c3ccccc3)CC2)cn1 (single isomer, unassigned) [Example 1351, 3-(3-((2-ethoxypyrimidin-5-yl)amino)-4-(4-phenylpiperidin-1-yl)phenyl)-4-methoxybutanoic acid] and CCOc1ncc(Nc2cc([C@H](CC)CNS(=O)(=O)C(F)(F)F)ccc2N(CC)C2CCOCC2)cn1 [Example 1329, (S)-N-(2-(3-((2-ethoxypyrimidin-5-yl)amino)-4-(ethyl(tetrahydro-2H-pyran-4-yl)amino)phenyl)butyl)-1,1,1-trifluoromethanesulfonamide] cannot be ordered by IC50: under 50 nM for the first, under 5 nM for the second.

CCC(CC(=O)O)c1cnc(N(CC)C2CCOCC2)c(Nc2ccc(Cl)cc2)c1 (racemic) [Example 1380] and CCC(CC(=O)O)c1cc(F)c(N(CC)C2CCOCC2)c(Nc2ccc(OC)nc2)c1 (single isomer, unassigned) [Example 137, 3-(4-(ethyl(tetrahydro-2H-pyran-4-yl)amino)-3-fluoro-5-((6-methoxypyridin-3-yl)amino)phenyl) pentanoic acid] cannot be ordered by IC50: under 5 nM for the first, under 50 nM for the second.
